This passage reports relative viability results from the supplement of paper PMC10307832.

Experiment in all cases: relative viability (nuclei count vs DMSO), 5 days (fraction); higher = more cells survive
Compound in the experiment “Metformin + Crizotinib”: CN(C)C(=N)NC(=N)N [Metformin] + C[C@@H](Oc1cc(-c2cnn(C3CCNCC3)c2)cnc1N)c1c(Cl)ccc(F)c1Cl [Crizotinib] (partner 1 µM)
The essentials: (§1)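 Relative viability divides the nuclei count in treated wells by that in vehicle wells. Lung cancer cell lines were seeded in 1536-well plates, dosed by pin tool the next day, and fixed and stained after 5 days in one step with final 0.05% Triton X-100, 1% formaldehyde and 1 ug/ml Hoechst. Dosing was a single drug or a fixed anchor-drug dose plus five library-drug doses (not always all listed) in √10 steps, and values are medians of duplicate plates imaged at 4×.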

Compound in the experiment “Apatinib + Navitoclax”: N#CC1(c2ccc(NC(=O)c3cccnc3NCc3ccncc3)cc2)CCCC1 [Apatinib] + CC1(C)CCC(c2ccc(Cl)cc2)=C(CN2CCN(c3ccc(C(=O)NS(=O)(=O)c4ccc(N[C@H](CCN5CCOCC5)CSc5ccccc5)c(S(=O)(=O)C(F)(F)F)c4)cc3)CC2)C1 [Navitoclax] (partner 0.5 µM)
In outline:
as §1

Compound in the experiment “Apatinib + Luminespib”: N#CC1(c2ccc(NC(=O)c3cccnc3NCc3ccncc3)cc2)CCCC1 [Apatinib] + CCNC(=O)c1noc(-c2cc(C(C)C)c(O)cc2O)c1-c1ccc(CN2CCOCC2)cc1 [Luminespib] (partner 0.01 µM)
In outline:
as §1

Compound in the experiment “Apatinib + Dasatinib”: N#CC1(c2ccc(NC(=O)c3cccnc3NCc3ccncc3)cc2)CCCC1 [Apatinib] + Cc1nc(Nc2ncc(C(=O)Nc3c(C)cccc3Cl)s2)cc(N2CCN(CCO)CC2)n1 [Dasatinib] (partner 0.075 µM)
In outline:
as §1

In the case of NCI-H1734, the relative viability in the experiment with Metformin + Crizotinib (first compound 10 µM) was found to be 0.743; in the experiment with Metformin + Crizotinib (first compound 31.62 µM), 0.83; with Metformin + Crizotinib (first compound 100 µM), 0.654; with Metformin + Crizotinib (first compound 316.23 µM), 0.669; with Metformin + Crizotinib (first compound 1000 µM), 0.74; in the experiment with Apatinib + Navitoclax (first compound 0.08 µM), 0.852. For the same cell line, the relative viability in the experiment with Apatinib + Navitoclax (first compound 0.253 µM) worked out at 0.81; with Apatinib + Navitoclax (first compound 0.8 µM), 0.861; with Apatinib + Navitoclax (first compound 2.53 µM), 0.708; with Apatinib + Navitoclax (first compound 8 µM), 0.685; in the experiment with Apatinib + Luminespib (first compound 0.08 µM), 0.19; with Apatinib + Luminespib (first compound 0.253 µM), 0.187. Also, the relative viability with Apatinib + Luminespib (first compound 0.8 µM) amounted to 0.275; in the experiment with Apatinib + Luminespib (first compound 2.53 µM), 0.165; with Apatinib + Luminespib (first compound 8 µM), 0.193; with Apatinib + Dasatinib (first compound 0.08 µM), 0.547; with Apatinib + Dasatinib (first compound 0.253 µM) it was 0.521; in the experiment with Apatinib + Dasatinib (first compound 0.8 µM), 0.439. The figures for the relative viability with Apatinib + Dasatinib (first compound 2.53 µM) and with Apatinib + Dasatinib (first compound 8 µM) were 0.424 and 0.399, respectively.

With NCI-H1915, the relative viability with Metformin + Crizotinib (first compound 31.62 µM) amounted to 0.985; with Metformin + Crizotinib (first compound 100 µM) it was 0.918; in the experiment with Metformin + Crizotinib (first compound 316.23 µM) it was 0.889; with Metformin + Crizotinib (first compound 1000 µM) it was 0.96; with Apatinib + Navitoclax (first compound 0.08 µM), 0.838; in the experiment with Apatinib + Navitoclax (first compound 0.253 µM) it was 0.819. For the same cell line, the relative viability worked out at 0.778 in the experiment with Apatinib + Navitoclax (first compound 0.8 µM); 0.783 in the experiment with Apatinib + Navitoclax (first compound 2.53 µM); 0.732 in the experiment with Apatinib + Navitoclax (first compound 8 µM); 0.891 with Apatinib + Luminespib (first compound 0.08 µM); 0.852 with Apatinib + Luminespib (first compound 0.253 µM); 0.737 in the experiment with Apatinib + Luminespib (first compound 0.8 µM). For the same cell line, the relative viability came out at 0.692 in the experiment with Apatinib + Luminespib (first compound 2.53 µM); 0.544 with Apatinib + Luminespib (first compound 8 µM); 0.323 in the experiment with Apatinib + Dasatinib (first compound 0.08 µM); 0.32 with Apatinib + Dasatinib (first compound 0.253 µM); 0.293 in the experiment with Apatinib + Dasatinib (first compound 0.8 µM); 0.321 in the experiment with Apatinib + Dasatinib (first compound 2.53 µM). Moreover, the relative viability with Apatinib + Dasatinib (first compound 8 µM) was 0.36.

As for BEN, the relative viability with Metformin + Crizotinib (first compound 10 µM) was 1.16; in the experiment with Metformin + Crizotinib (first compound 31.62 µM), 1.24; in the experiment with Metformin + Crizotinib (first compound 100 µM) it was 1.15; in the experiment with Metformin + Crizotinib (first compound 316.23 µM), 1.01; with Metformin + Crizotinib (first compound 1000 µM), 1.13; with Apatinib + Navitoclax (first compound 0.08 µM), 0.0553. The relative viability is 0.0606 in the experiment with Apatinib + Navitoclax (first compound 0.253 µM); 0.0462 in the experiment with Apatinib + Navitoclax (first compound 0.8 µM); 0.0661 with Apatinib + Navitoclax (first compound 2.53 µM); 0.0637 with Apatinib + Navitoclax (first compound 8 µM); 0.478 in the experiment with Apatinib + Luminespib (first compound 0.08 µM); 0.348 with Apatinib + Luminespib (first compound 0.253 µM). The relative viability is 0.385 with Apatinib + Luminespib (first compound 0.8 µM); 0.336 with Apatinib + Luminespib (first compound 2.53 µM); 0.229 in the experiment with Apatinib + Luminespib (first compound 8 µM); 0.251 with Apatinib + Dasatinib (first compound 0.08 µM); 0.27 with Apatinib + Dasatinib (first compound 0.253 µM); 0.245 with Apatinib + Dasatinib (first compound 0.8 µM). The relative viability amounted to 0.242 with Apatinib + Dasatinib (first compound 2.53 µM) and 0.265 with Apatinib + Dasatinib (first compound 8 µM).

With ChaGo-K-1, the relative viability with Metformin + Crizotinib (first compound 10 µM) was 1.16; with Metformin + Crizotinib (first compound 31.62 µM), 1.07; with Metformin + Crizotinib (first compound 100 µM) it was 1.09; with Metformin + Crizotinib (first compound 316.23 µM) it was 1.13; with Metformin + Crizotinib (first compound 1000 µM), 1.19; in the experiment with Apatinib + Navitoclax (first compound 0.253 µM), 1.4. The relative viability in the experiment with Apatinib + Navitoclax (first compound 0.8 µM) is 0.971; in the experiment with Apatinib + Navitoclax (first compound 2.53 µM), 0.888; in the experiment with Apatinib + Navitoclax (first compound 8 µM), 0.993; in the experiment with Apatinib + Luminespib (first compound 0.08 µM), 0.618; in the experiment with Apatinib + Luminespib (first compound 0.253 µM), 0.679; with Apatinib + Luminespib (first compound 0.8 µM), 0.661. For the same cell line, the relative viability was 0.519 with Apatinib + Luminespib (first compound 2.53 µM); 0.564 in the experiment with Apatinib + Luminespib (first compound 8 µM); 0.603 with Apatinib + Dasatinib (first compound 0.08 µM); 0.535 with Apatinib + Dasatinib (first compound 0.253 µM); 0.642 with Apatinib + Dasatinib (first compound 0.8 µM); 0.547 in the experiment with Apatinib + Dasatinib (first compound 2.53 µM). The relative viability with Apatinib + Dasatinib (first compound 8 µM) was found to be 0.501.

Take NCI-H1355: the relative viability amounted to 1.01 with Metformin + Crizotinib (first compound 10 µM); 1.06 with Metformin + Crizotinib (first compound 31.62 µM); 1.03 in the experiment with Metformin + Crizotinib (first compound 100 µM); 0.986 with Metformin + Crizotinib (first compound 316.23 µM); 1.11 with Metformin + Crizotinib (first compound 1000 µM); 0.944 with Apatinib + Navitoclax (first compound 0.08 µM). Moreover, the relative viability with Apatinib + Navitoclax (first compound 0.253 µM) worked out at 0.929; in the experiment with Apatinib + Navitoclax (first compound 0.8 µM), 0.848; in the experiment with Apatinib + Navitoclax (first compound 2.53 µM), 0.815; with Apatinib + Navitoclax (first compound 8 µM), 0.65; in the experiment with Apatinib + Luminespib (first compound 0.08 µM) it was 0.672; with Apatinib + Luminespib (first compound 0.253 µM) it was 0.809. For the same cell line, the relative viability with Apatinib + Luminespib (first compound 0.8 µM) stood at 0.761; in the experiment with Apatinib + Luminespib (first compound 2.53 µM), 0.647; in the experiment with Apatinib + Luminespib (first compound 8 µM) it was 0.563; in the experiment with Apatinib + Dasatinib (first compound 0.08 µM), 0.682; with Apatinib + Dasatinib (first compound 0.253 µM), 0.791; in the experiment with Apatinib + Dasatinib (first compound 0.8 µM) it was 0.687. The results for the relative viability with Apatinib + Dasatinib (first compound 2.53 µM) and in the experiment with Apatinib + Dasatinib (first compound 8 µM) were 0.621 and 0.614, respectively.

As to NCI-H1975, the relative viability with Metformin + Crizotinib (first compound 10 µM) was 1.09; in the experiment with Metformin + Crizotinib (first compound 31.62 µM), 1.12; in the experiment with Metformin + Crizotinib (first compound 100 µM) it was 1.21; with Metformin + Crizotinib (first compound 316.23 µM), 1.06; in the experiment with Metformin + Crizotinib (first compound 1000 µM), 1.27; with Apatinib + Navitoclax (first compound 0.08 µM), 1.19. Besides, the relative viability with Apatinib + Navitoclax (first compound 0.253 µM) was 1.15; with Apatinib + Navitoclax (first compound 0.8 µM) it was 1.04; in the experiment with Apatinib + Navitoclax (first compound 2.53 µM), 0.869; in the experiment with Apatinib + Navitoclax (first compound 8 µM), 0.852; in the experiment with Apatinib + Luminespib (first compound 0.08 µM), 0.167; in the experiment with Apatinib + Luminespib (first compound 0.253 µM) it was 0.195. Moreover, the relative viability was 0.229 with Apatinib + Luminespib (first compound 0.8 µM); 0.176 with Apatinib + Luminespib (first compound 2.53 µM); 0.262 with Apatinib + Luminespib (first compound 8 µM); 0.469 with Apatinib + Dasatinib (first compound 0.08 µM); 0.313 with Apatinib + Dasatinib (first compound 0.253 µM); 0.262 with Apatinib + Dasatinib (first compound 0.8 µM). In addition, the results for the relative viability with Apatinib + Dasatinib (first compound 2.53 µM) and in the experiment with Apatinib + Dasatinib (first compound 8 µM) were 0.26 and 0.281, respectively.

In the case of NCI-H2087, the relative viability with Metformin + Crizotinib (first compound 10 µM) is 0.813; with Metformin + Crizotinib (first compound 31.62 µM), 0.726; with Metformin + Crizotinib (first compound 100 µM), 0.682; in the experiment with Metformin + Crizotinib (first compound 316.23 µM) it was 0.849; with Metformin + Crizotinib (first compound 1000 µM), 0.638; with Apatinib + Navitoclax (first compound 0.08 µM) it was 1.06. Besides, the relative viability was determined as 1.05 in the experiment with Apatinib + Navitoclax (first compound 0.253 µM); 0.847 with Apatinib + Navitoclax (first compound 0.8 µM); 0.963 in the experiment with Apatinib + Navitoclax (first compound 2.53 µM); 0.782 with Apatinib + Navitoclax (first compound 8 µM); 0.186 with Apatinib + Luminespib (first compound 0.08 µM); 0.183 in the experiment with Apatinib + Luminespib (first compound 0.253 µM). Besides, the relative viability with Apatinib + Luminespib (first compound 0.8 µM) amounted to 0.185; in the experiment with Apatinib + Luminespib (first compound 2.53 µM), 0.135; with Apatinib + Luminespib (first compound 8 µM), 0.149; with Apatinib + Dasatinib (first compound 0.08 µM), 0.929; with Apatinib + Dasatinib (first compound 0.253 µM), 0.747; with Apatinib + Dasatinib (first compound 0.8 µM), 0.763. Further, the values for the relative viability with Apatinib + Dasatinib (first compound 2.53 µM) and with Apatinib + Dasatinib (first compound 8 µM) were 0.685 and 0.524, respectively.
